Source: article PMC7523331, “Curcumin derivative C212 inhibits Hsp90 and eliminates both growing and quiescent leukemia cells in deep dormancy” (Cell Communication and Signaling : CCS, 2020)

Target: T1, Hsp90
T1 construct: gene HSP82; C-terminus of Hsp90 (C-Hsp90, 629–732, 15 kDa), His-tagged
Test: intrinsic fluorescence quenching titration with purified Hsp90 domains
Format: binding
Text: intrinsic fluorescence quenching titration with purified Hsp90 domains on Hsp90 | Dissociation constant (Kd) values of C212 with different Hsp90 domains

## O=C(/C=C/c1cccnc1)C(Cc1ccccc1Cl)C(=O)/C=C/c1cccnc1 [C212, (1E,6E)-4-(2-Chlorinebenzyl)-1,7-bis(3-pyridine)-1,6-heptadiene-3,5-dione]
  Kd: 15.3 ± 1.2 µM
